Laboratory results: US7417156B2, “Orally active, antimalarial, anticancer, artemisinin-derived trioxane dimers” (Johns Hopkins University, priority 2002, dated 2008)

Columns and labels:
[1] = test system: MOLT-4; details: for Log10GI50: Leukemia, MOLT-4; for Log10TGI50: TGI: PG=0
Procedure: Growth Inhibition. […] The screening assay is performed on 96-well microtitre plates. Relatively high initial inoculation densities are used, in order to permit measurement of “time-zero” values and to enhance the screen's ability to detect and provide some differentiation between growth inhibition and cytotoxic response parameters. […] The inoculated microtitre plates are pre-incubated for 24 hours at 37° C. prior to drug additions. The five drug dilutions tested routinely range from 10^−4 to 10^−8 molar. Higher or lower concentration ranges may be selected on a non-routine basis if appropriate solubility and/or prior biological information or other screening data so dictate. Duplicate wells are prepared for all concentrations, (concentration is often denoted by placing brackets around a number); “time-zero” and “no drug” controls are also provided for each test. The minimum amount of compound required for a one-time evaluation in the routine screen can be calculated from the knowledge that each test requires a total of approximately 40 ml (0.04 liter) of cell culture medium containing the highest desired drug concentration. […] After a 48 hour incubation (37° C.) with the test compound, the cells are fixed in situ to the bottoms of the microtitre wells by addition of 50 μl of either 50% trichloroacetic acid (for adherent cell lines) or 80% trichloroacetic acid (for settled cell suspension lines), followed by incubation for 60 minutes at 4° C. The cellular protein in each well is assayed using a sulforhodamine B (SRB) stain procedure. Briefly, after discarding the supernatants, the microtitre plates are washed 5 times with deionized water and air-dried. […] Unbound SRB is removed by washing 5 times with 1% acetic acid. […] SRB is a bright pink anionic dye which, in dilute acetic acid, binds electrostatically to the basic amino acids of TCA-fixed cells. Cryopreserved master stocks of all the lines are maintained, and cultures used for screening are replaced from the master stock after no more than twenty passages in the screening laboratory. The cell line panel consists of 60 lines, organized into nine, disease-related subpanels including leukemia, non-small-cell lung cancer, colon, CNS, melanoma, ovarian, renal, prostate and breast cancers.
At this value the increase from time tzero, in the number or mass of cells in the test well is only 50% as much as the corresponding increase in the control well during this period of the experiment, see Table III. A drug effect of this intensity is interpreted as primary growth inhibition.
At this value the number or mass of cells in the well at the end of the experiment equals the number or mass of cells in the well at time tzero, see Table IV. A drug effect of this intensity is regarded as cytostasis.
At this value, the number or mass of cells in the test well at the end of the experiment is half that at time tzero, see Table V. This is interpreted as cytotoxicity.
Dose response curves, shown in the above mentioned Figures, are obtained by exposing various cancer cell lines to compounds having a known concentration ([log10M]), as discussed in detail above, and then plotting the percentage growth of each cell line for each concentration. […] Percentage growth is determined by dividing the number or mass of cells in the test well by the number or mass of cells in a control well. […] As discussed previously, the five drug dilutions routinely tested range from 10^−4 to […].

[2] = test system: A549/ATCC; test: NCI 60 cell line panel screen (SRB); assay type: cell-based, human; details: for Log10TGI50: TGI: PG=0; for Log10GI50: Non-Small Cell Lung Cancer, A549/ATCC
[3] = test system: EKVX; test: NCI 60 cell line panel screen (SRB); assay type: cell-based, human
[4] = test system: NCI-H322M; assay type: cell-based; details: for Log10TGI50: NCI-H322M (Non-Small Cell Lung Cancer), TGI: PG=0; for Log10GI50: Non-Small Cell Lung Cancer, NCI-H322M
[5] = test system: NCI-H522; test: NCI 60 cell line panel screen (SRB); assay type: cell-based, human; details: for Log10TGI50: NCI-H522 (Non-Small Cell Lung Cancer), TGI: PG=0; for Log10GI50: Non-Small Cell Lung Cancer, NCI-H522
[6] = test system: HT29; test: NCI 60 cell line panel screen (SRB); assay type: cell-based, human
[7] = test system: UACC-257; test: NCI 60 cell line panel screen (SRB); assay type: cell-based, human; details: for Log10GI50: Melanoma, UACC-257; for Log10TGI50: TGI: PG=0
[8] = test system: IGROVI; test: NCI 60 cell line panel screen (SRB); assay type: cell-based, human; details: for Log10TGI50: TGI: PG=0; for Log10GI50: Ovarian Cancer, IGROVI
[9] = test system: OVCAR-5; test: NCI 60 cell line panel screen (SRB); assay type: cell-based, human
[10] = test system: 786-0; test: NCI 60 cell line panel screen (SRB); assay type: cell-based, human; details: for Log10GI50: Renal Cancer, 786-0
[11] = test system: TK-10; test: NCI 60 cell line panel screen (SRB); assay type: cell-based, human; details: for Log10GI50: Renal Cancer, TK-10; for Log10TGI50: TGI: PG=0
[12] = test system: UO-31; test: NCI 60 cell line panel screen (SRB); assay type: cell-based, human; details: for Log10GI50: Renal Cancer, UO-31; for Log10TGI50: TGI: PG=0
[13] = test system: HS 578T; test: NCI 60 cell line panel screen (SRB); assay type: cell-based, human; details: for Log10GI50: Breast Cancer, HS 578T; for Log10TGI50: TGI: PG=0
[14] = test system: MDA-MB-435; test: NCI 60 cell line panel screen (SRB); assay type: cell-based, human; details: for Log10GI50: Breast Cancer, MDA-MB-435; for Log10TGI50: TGI: PG=0
[15] = test system: T-47D; test: NCI 60 cell line panel screen (SRB); assay type: cell-based, human; details: T-47D (Breast Cancer); TGI: PG=0
[16] = test system: SF-539; test: NCI 60 cell line panel screen (SRB); assay type: cell-based, human
[17] = A549/ATCC (Non-Small Cell Lung Cancer)

Row | SMILES | Log10GI50 [1] | Log10TGI50 ([1]; MOLT-4 (Leukemia)) | Log10TGI50 [2, 17] | Log10GI50 [2] | Log10TGI50 [4] | Log10GI50 [4] | Log10TGI50 [5] | Log10GI50 [5] | Log10GI50 [7] | Log10TGI50 ([7]; UACC-257 (Melanoma)) | Log10TGI50 ([8]; IGROVI (Ovarian Cancer)) | Log10GI50 [8] | Log10GI50 [10] | Log10GI50 [11] | Log10TGI50 ([11]; TK-10 (Renal Cancer)) | Log10GI50 [12] | Log10TGI50 ([12]; UO-31 (Renal Cancer)) | Log10GI50 [13] | Log10TGI50 ([13]; HS 578T (Breast Cancer)) | Log10GI50 [14] | also measured
1 | CC1CCC2C(C)C(CC(COCC(=O)O)CC3OC4OC5(C)CCC6C(C)CCC(C3C)C46OO5)OC3OC4(C)CCC1C32OO4 (stereo not shown) [Compound 12b, bis-trioxane O-acetic acid] | −7.66 | >−4.30 log10M | >−4.30 log10M | >−4.30 | >−4.30 log10M | −5.03 | >−4.30 log10M | >−4.30 | >−4.30 | >4.30 log10M | >−4.30 log10M | −5.06 | −6.59 | −7.22 | −5.22 log10M | −5.84 | >−4.30 log10M | >−4.30 | >−4.30 log10M | −6.97 | Log10TGI50 ([3]; EKVX (Non-Small Cell Lung Cancer), TGI: PG=0): >−4.30 log10M; Log10GI50 ([3]; Non-Small Cell Lung Cancer, EKVX): >−4.30; Log10TGI50 ([6]; HT29 (Colon Cancer), TGI: PG=0): >−4.30 log10M; Log10TGI50 ([9]; OVCAR-5 (Ovarian Cancer), TGI: PG=0): −6.39 log10M; Log10TGI50 ([10]; 786-0 (Renal Cancer), TGI: PG=0): >−4.30 log10M; Log10TGI50 ([14]; MDA-MB-435 (Breast Cancer)): >−4.30 log10M; Log10TGI50 [15]: >−4.30 log10M
2 | C[C@@H]1CC[C@H]2[C@@H](C)C(CC(O)(COC(=O)CCC(=O)O)CC3OC4O[C@]5(C)CC[C@H]6[C@H](C)CC[C@@H]([C@H]3C)C46OO5)OC3O[C@]4(C)CCC1C32OO4 (stereo partly shown) [Compound 9, tertiary alcohol primary succinate ester] | −5.15 | >−4.30 log10M | >−4.30 log10M | −4.86 | >−4.30 log10M | −5.07 | >−4.30 log10M | −4.91 | −4.89 | >−4.30 log10M | >−4.30 log10M | −4.97 | <−8.30 | <−8.30 | −4.60 log10M | −5.05 | >−4.30 log10M | −4.36 | >−4.30 log10M | <−8.30 | Log10LC50 ([1]; MOLT-4 (Leukemia), LC50: PG=−50): >−4.30 log10M; drug concentration for primary growth inhibition (percentage growth +50) ([1]; MOLT-4, from dose response curves FIGS. 7a-7i): < 10^−5 molar; concentration for cytotoxicity (percentage growth −50) ([1]; human, 48 h): greater than 10^−4 M; Log10LC50 ([2]; A549/ATCC (Non-Small Cell Lung Cancer), LC50: PG=−50): >−4.30 log10M; Log10LC50 ([5]; NCI-H-522 (Non-Small Cell Lung Cancer), LC50: PG=−50): >−4.30 log10M; Log10GI50 ([6]; Colon Cancer, HT29): <−8.30; Log10LC50 ([6]; HT29 (Colon Cancer), LC50: PG=−50): >−4.30 log10M; Log10GI50 ([16]; CNS Cancer, SF-539): −4.90; Log10LC50 ([16]; SF-539 (CNS Cancer), LC50: PG=−50): >−4.30 log10M; Log10TGI50 ([16]; SF-539 (CNS Cancer), TGI: PG=0): −4.50 log10M; Log10LC50 ([7]; UACC-257 (Melanoma), LC50: PG=−50): >−4.30 log10M; Log10LC50 ([8]; IGROVI (Ovarian Cancer), LC50: PG=−50): >−4.30 log10M; Log10LC50 ([9]; OVCAR-5 (Ovarian Cancer), LC50: PG=−50): >−4.30 log10M; Log10GI50 ([9]; Ovarian Cancer, OVCAR-5): <−8.30; Log10LC50 ([10]; 786-0 (Renal Cancer), LC50: PG=−50): >−4.30 log10M; Log10LC50 ([11]; TK-10 (Renal Cancer), LC50: PG=−50): >−4.30 log10M; Log10LC50 ([12]; UO-31 (Renal Cancer), LC50: PG=−50): >−4.30 log10M; Log10LC50 ([13]; HS 578T (Breast Cancer), LC50: PG=−50): >−4.30 log10M; Log10LC50 ([14]; MDA-MB-435 (Breast Cancer), LC50: PG=−50): >−4.30 log10M; Log10TGI50 ([14]; MDA-MB-435 (Breast Cancer)): >−4.30 log10M
